Assays:
[1] = tested on: A2780; assay: Antiproliferative activity against human A2780 cells; type: functional, cell-based
[2] = target: Cyclin-dependent kinase 2/cyclin A (Homo sapiens, UniProt P24941); assay: Inhibition of CDK2/cyclin A; type: protein-complex assay

Row | IC50 [1] [nM] | IC50 [2] [nM] | Compound
1 | 1600 | 27 | C[C@H](C(=O)Nc1cc(C2CC2)n[nH]1)c1ccc(N2CC[C@@H](O)C2=O)cc1
2 | 2200 | 27 | C[C@H](C(=O)Nc1cc(C2CC2)n[nH]1)c1ccc(N2CC[C@H](O)C2=O)cc1
